Test [1] has as its target Insulin receptor (Homo sapiens) (UniProt P06213). The experiment in a line: Inhibition of recombinant human activated IR (1005 to 1310 residues) at 1 uM using KKKSPGEYVNIEFG as substrate after 40 mins in presence of [gamma-33P]ATP by scintillation counting method.
Test [2] has as its target Phosphatidylinositol 5-phosphate 4-kinase type-2 alpha (Homo sapiens) (UniProt P48426). Briefly: Inhibition of recombinant full-length human PIP4K2alpha at 1 uM using phosphatidylinositol 5-phosphate/phosphatidylserine as substrate after 40 mins in presence of [gamma-33P]ATP by scintillation counting method.
Test [3] concerns the target PI3K p110 beta/p85 alpha (Homo sapiens) (UniProt P27986+P42338). The experiment in a line: Inhibition of recombinant full-length human p110b/p85a at 1 uM using phosphatidylinositol 4,5-bisphosphate as substrate after 40 mins in presence of [gamma-33P]ATP by scintillation counting method. Format: protein-complex assay.
Test [4] addresses Mitogen-activated protein kinase 1 (Mus musculus) (UniProt P63085). Briefly: Inhibition of recombinant full-length mouse MAPK2 at 1 uM using myelin basic protein as substrate after 40 mins in presence of [gamma-33P]ATP by scintillation counting method.
The target of test [5] is Testis-specific serine/threonine-protein kinase 1 (Homo sapiens) (UniProt Q9BXA7). The experiment in a line: Inhibition of recombinant full-length human TSSK1 at 1 uM using KKKVSRSGLYRSPSMPENLNRPR as substrate after 40 mins in presence of [gamma-33P]ATP by scintillation counting method.
In test [6] the target is Serine/threonine-protein kinase ATR (Homo sapiens, UniProt Q13535). Briefly: Inhibition of human recombinant FLAG-tagged full length ATR expressed in mammalian cell line co-expressing human recombinant cMyc-tagged full length ATRIP at 1 uM using GST-cMyc-p53 as substrate after 40 mins in presence of [gamma-33P]ATP by scintillation counting method.
Test [7] has as its target Tyrosine-protein kinase BTK (Homo sapiens, UniProt Q06187). The experiment in a line: Inhibition of recombinant full-length human BTK at 1 uM using KVEKIGEGTYGVVYK as substrate after 40 mins in presence of [gamma-33P]ATP by scintillation counting method.
Test [8] addresses Tyrosine-protein kinase Fes/Fps (Homo sapiens) (UniProt P07332). Briefly: Inhibition of recombinant human FES (2 to end residues) at 1 uM using poly(Glu,Tyr) 4:1 as substrate after 40 mins in presence of [gamma-33P]ATP by scintillation counting method.
The target of test [9] is Phosphatidylinositol 4-phosphate 5-kinase type-1 gamma (Homo sapiens) (UniProt O60331). The experiment in a line: Inhibition of recombinant full-length human PIP5K1gamma at 1 uM using phosphatidylinositol 4-phosphate/phosphatidylserine as substrate after 40 mins in presence of [gamma-33P]ATP by scintillation counting method.
Test [10] concerns the target 5'-AMP-activated protein kinase catalytic subunit alpha-1 (Homo sapiens) (UniProt Q13131). Briefly: Inhibition of recombinant full-length human AMPKalpha1 at 1 uM using AMARAASAAALARRR as substrate after 40 mins in presence of [gamma-33P]ATP by scintillation counting method.
Test [11] concerns the target Homeodomain-interacting protein kinase 2 (Homo sapiens) (UniProt Q9H2X6). The experiment in a line: Inhibition of recombinant human HIPK2 (165 to 564 residues) at 1 uM using myelin basic protein as substrate after 40 mins in presence of [gamma-33P]ATP by scintillation counting method.
For test [12], the target named is Death-associated protein kinase 1 (Homo sapiens) (UniProt P53355). The experiment in a line: Inhibition of recombinant human DAPK1 (1 to 296 residues) at 1 uM using KKLNRTLSFAEPG as substrate after 40 mins in presence of [gamma-33P]ATP by scintillation counting method.
Test [13] has as its system PI3-kinase p110-alpha/p85-alpha (Homo sapiens), P27986+P42336 [E542K]. Briefly: Inhibition of recombinant full-length human p110a E542K mutant/p85a at 1 uM using phosphatidylinositol 4,5-bisphosphate as substrate after 40 mins in presence of [gamma-33P]ATP by scintillation counting method. The format is protein-complex assay.
Test [14] deals with Leucine-rich repeat serine/threonine-protein kinase 2 (Homo sapiens) (UniProt Q5S007). The experiment in a line: Inhibition of recombinant human LRRK2 (970 to end residues) at 1 uM using RLGRDKYKTLRQIRQ as substrate after 40 mins in presence of [gamma-33P]ATP by scintillation counting method.
Test [15] deals with Tyrosine-protein kinase ITK/TSK (Homo sapiens) (UniProt Q08881). The experiment in a line: Inhibition of recombinant human ITK (352 to 617 residues) at 1 uM using myelin basic protein as substrate after 40 mins in presence of [gamma-33P]ATP by scintillation counting method.
For test [16], the target named is Cyclin-dependent kinase 5/CDK5 activator 1 (Homo sapiens) (UniProt Q00535+Q15078). Briefly: Inhibition of recombinant full-length human CDK5/P25 at 1 uM using histone H1 as substrate after 40 mins in presence of [gamma-33P]ATP by scintillation counting method. The format is protein-complex assay.
Test [17] deals with Serine-protein kinase ATM (Homo sapiens) (UniProt Q13315). The experiment in a line: Inhibition of recombinant full-length human ATM at 1 uM using GST-cMyc-p53 as substrate after 40 mins in presence of [gamma-33P]ATP by scintillation counting method.
The target of test [18] is Mitogen-activated protein kinase kinase kinase kinase 1 (Homo sapiens) (UniProt Q92918). Briefly: Inhibition of recombinant human HPK1 (1 to 346 residues) at 1 uM using myelin basic protein as substrate after 40 mins in presence of [gamma-33P]ATP by scintillation counting method.
The test system of test [19] is Serine/threonine-protein kinase Chk2 (Homo sapiens), O96017 [I157T]. Briefly: Inhibition of recombinant human CHK2 I157T mutant (5 to end residues) at 1 uM using KKKVSRSGLYRSPSMPENLNRPR as substrate after 40 mins in presence of [gamma-33P]ATP by scintillation counting method.
Test [20] deals with Ephrin type-A receptor 1 (Homo sapiens) (UniProt P21709). Briefly: Inhibition of recombinant human EPHA1 ([…]) at 1 uM using KKKSPGEYVNIEFG as substrate after 40 mins in presence of [gamma-33P]ATP by scintillation counting method.
Chain of Ephrin type-A receptor 1 (Homo sapiens) (P21709 whole entry): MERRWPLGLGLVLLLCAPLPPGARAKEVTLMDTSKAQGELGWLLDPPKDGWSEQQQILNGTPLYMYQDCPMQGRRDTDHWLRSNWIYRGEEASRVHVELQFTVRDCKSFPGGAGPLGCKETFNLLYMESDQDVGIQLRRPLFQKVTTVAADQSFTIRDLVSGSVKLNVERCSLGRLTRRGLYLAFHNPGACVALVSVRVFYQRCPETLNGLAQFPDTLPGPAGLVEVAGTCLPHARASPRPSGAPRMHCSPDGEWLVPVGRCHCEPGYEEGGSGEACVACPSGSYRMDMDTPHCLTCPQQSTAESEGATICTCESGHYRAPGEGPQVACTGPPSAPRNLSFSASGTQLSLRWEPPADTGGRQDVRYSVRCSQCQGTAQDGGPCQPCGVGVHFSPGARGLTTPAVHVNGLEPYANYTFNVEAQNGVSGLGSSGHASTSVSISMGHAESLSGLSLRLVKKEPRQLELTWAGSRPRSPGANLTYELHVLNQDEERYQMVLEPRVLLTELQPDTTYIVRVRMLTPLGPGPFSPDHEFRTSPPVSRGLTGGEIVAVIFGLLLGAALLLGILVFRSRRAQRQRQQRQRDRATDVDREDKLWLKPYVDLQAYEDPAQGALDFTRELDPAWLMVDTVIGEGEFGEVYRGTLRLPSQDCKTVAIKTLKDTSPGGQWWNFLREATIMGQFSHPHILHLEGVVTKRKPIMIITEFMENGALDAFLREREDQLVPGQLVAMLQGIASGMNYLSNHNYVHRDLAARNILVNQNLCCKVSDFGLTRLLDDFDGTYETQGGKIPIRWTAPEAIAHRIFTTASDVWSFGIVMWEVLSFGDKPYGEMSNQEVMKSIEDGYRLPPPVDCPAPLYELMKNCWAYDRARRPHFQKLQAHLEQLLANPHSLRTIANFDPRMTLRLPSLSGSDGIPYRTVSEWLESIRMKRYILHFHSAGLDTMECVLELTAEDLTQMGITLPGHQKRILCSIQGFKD
Test [21] concerns the target NT-3 growth factor receptor (Homo sapiens) (UniProt Q16288). Briefly: Inhibition of recombinant human TrkC (510 to end residues) at 1 uM using GEEPLYWSFPAKKK as substrate after 40 mins in presence of [gamma-33P]ATP by scintillation counting method.
The target in test [22] is Serine/threonine-protein kinase pim-1 (Homo sapiens) (UniProt P11309). Briefly: Inhibition of recombinant full-length human PIM1 at 1 uM using KKRNRTLTV as substrate after 40 mins in presence of [gamma-33P]ATP by scintillation counting method.
For test [23], the target named is CDK18/Cyclin Y (Homo sapiens) (UniProt Q07002+Q8ND76). The experiment in a line: Inhibition of recombinant full-length human CDK18/Cyclin Y at 1 uM using YRRAAVPPSPSLSRHSSPHQS(p)EDEEE as substrate after 40 mins in presence of [gamma-33P]ATP by scintillation counting method. Format: protein-complex assay.

Each structure is given as a SMILES string.

Chain of Homeodomain-interacting protein kinase 2 (Homo sapiens) (Q9H2X6 whole entry, looked up, the tested form may be a part): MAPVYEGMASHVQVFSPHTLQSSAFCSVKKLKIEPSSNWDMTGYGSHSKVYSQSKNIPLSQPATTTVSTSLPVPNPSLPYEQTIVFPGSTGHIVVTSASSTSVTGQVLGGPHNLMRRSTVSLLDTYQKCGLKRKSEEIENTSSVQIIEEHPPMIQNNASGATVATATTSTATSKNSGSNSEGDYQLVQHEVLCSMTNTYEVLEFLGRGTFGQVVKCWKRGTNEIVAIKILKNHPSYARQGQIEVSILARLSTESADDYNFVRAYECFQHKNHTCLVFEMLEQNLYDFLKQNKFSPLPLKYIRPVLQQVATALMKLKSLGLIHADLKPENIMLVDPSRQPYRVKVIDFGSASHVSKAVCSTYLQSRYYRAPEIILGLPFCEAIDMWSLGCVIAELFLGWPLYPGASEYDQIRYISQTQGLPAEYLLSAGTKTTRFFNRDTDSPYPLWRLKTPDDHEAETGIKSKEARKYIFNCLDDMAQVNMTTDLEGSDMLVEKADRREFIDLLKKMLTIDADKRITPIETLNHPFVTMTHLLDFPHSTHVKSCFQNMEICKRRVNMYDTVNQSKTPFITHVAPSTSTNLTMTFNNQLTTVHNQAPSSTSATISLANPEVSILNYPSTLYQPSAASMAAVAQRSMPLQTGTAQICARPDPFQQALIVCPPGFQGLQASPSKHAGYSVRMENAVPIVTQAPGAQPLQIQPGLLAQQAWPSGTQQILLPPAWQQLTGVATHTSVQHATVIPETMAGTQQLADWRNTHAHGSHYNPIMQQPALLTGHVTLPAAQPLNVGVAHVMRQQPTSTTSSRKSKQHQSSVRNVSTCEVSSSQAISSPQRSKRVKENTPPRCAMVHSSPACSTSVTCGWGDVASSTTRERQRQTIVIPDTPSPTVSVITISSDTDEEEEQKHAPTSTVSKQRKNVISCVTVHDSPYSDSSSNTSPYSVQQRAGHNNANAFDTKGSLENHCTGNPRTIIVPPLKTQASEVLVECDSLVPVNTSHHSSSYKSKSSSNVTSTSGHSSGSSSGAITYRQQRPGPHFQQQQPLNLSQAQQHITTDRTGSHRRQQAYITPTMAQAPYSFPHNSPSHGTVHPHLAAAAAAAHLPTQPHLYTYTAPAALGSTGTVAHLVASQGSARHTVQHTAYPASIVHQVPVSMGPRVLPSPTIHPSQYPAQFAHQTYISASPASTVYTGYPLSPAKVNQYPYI
Chain of NT-3 growth factor receptor (Homo sapiens) (Q16288 32-839 limits assumed): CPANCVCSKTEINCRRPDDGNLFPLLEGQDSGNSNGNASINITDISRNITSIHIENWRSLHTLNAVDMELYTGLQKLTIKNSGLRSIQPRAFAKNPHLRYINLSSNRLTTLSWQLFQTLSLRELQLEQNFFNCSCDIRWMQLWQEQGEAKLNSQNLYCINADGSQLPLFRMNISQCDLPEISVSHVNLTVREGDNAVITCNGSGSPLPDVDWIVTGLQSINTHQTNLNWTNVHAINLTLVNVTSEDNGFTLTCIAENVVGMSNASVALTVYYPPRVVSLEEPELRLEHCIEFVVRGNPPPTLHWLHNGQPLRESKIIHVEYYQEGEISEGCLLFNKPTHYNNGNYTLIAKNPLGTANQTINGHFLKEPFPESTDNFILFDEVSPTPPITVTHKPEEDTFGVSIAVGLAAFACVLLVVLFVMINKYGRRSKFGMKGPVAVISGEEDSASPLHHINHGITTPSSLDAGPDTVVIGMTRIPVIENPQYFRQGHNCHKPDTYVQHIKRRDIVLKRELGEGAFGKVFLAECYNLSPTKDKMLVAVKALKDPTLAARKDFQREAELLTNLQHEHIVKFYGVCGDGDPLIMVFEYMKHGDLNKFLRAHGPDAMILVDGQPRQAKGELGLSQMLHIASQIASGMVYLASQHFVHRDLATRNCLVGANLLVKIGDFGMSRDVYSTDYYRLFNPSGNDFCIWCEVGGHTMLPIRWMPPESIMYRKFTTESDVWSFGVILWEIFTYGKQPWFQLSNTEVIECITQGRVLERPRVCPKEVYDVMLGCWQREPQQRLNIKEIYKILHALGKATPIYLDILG
Chain of Insulin receptor (Homo sapiens) (P06213 28-758 limits assumed): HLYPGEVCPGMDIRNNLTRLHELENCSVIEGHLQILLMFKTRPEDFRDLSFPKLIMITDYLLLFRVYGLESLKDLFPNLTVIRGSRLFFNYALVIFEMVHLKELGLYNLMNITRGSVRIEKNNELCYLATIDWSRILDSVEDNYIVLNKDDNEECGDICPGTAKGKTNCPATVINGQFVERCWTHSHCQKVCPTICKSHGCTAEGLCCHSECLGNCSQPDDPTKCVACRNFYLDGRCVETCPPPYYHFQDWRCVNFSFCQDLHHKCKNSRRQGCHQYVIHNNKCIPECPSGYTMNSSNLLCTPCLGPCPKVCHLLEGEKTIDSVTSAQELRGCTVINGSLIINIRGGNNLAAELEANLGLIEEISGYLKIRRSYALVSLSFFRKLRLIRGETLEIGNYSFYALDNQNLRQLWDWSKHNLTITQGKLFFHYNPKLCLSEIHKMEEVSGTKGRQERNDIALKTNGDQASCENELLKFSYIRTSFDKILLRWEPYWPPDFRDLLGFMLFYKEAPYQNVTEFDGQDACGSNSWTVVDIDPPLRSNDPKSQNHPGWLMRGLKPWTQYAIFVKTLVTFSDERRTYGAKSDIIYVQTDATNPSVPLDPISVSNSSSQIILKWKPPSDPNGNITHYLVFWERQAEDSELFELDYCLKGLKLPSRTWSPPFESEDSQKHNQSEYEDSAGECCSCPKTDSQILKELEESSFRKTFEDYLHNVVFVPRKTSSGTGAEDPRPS
Chain of Insulin receptor (Homo sapiens) (P06213 763-1382 limits assumed): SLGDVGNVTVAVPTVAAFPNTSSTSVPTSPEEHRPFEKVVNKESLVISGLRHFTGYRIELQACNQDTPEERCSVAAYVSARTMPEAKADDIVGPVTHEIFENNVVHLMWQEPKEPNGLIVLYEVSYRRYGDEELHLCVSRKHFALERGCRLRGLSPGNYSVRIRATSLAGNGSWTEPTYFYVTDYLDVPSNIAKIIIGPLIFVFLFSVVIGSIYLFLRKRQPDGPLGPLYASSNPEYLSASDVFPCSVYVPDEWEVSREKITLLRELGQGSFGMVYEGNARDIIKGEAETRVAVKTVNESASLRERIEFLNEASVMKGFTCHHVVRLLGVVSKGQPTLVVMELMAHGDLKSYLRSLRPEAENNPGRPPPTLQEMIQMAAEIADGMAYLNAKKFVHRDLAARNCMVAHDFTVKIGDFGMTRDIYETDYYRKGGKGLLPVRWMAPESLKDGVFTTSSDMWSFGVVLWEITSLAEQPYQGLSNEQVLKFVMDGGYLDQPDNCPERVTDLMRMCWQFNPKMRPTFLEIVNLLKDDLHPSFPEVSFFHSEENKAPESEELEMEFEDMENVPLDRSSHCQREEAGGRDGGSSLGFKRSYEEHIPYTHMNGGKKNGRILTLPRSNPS
Chain of Tyrosine-protein kinase BTK (Q06187 whole entry): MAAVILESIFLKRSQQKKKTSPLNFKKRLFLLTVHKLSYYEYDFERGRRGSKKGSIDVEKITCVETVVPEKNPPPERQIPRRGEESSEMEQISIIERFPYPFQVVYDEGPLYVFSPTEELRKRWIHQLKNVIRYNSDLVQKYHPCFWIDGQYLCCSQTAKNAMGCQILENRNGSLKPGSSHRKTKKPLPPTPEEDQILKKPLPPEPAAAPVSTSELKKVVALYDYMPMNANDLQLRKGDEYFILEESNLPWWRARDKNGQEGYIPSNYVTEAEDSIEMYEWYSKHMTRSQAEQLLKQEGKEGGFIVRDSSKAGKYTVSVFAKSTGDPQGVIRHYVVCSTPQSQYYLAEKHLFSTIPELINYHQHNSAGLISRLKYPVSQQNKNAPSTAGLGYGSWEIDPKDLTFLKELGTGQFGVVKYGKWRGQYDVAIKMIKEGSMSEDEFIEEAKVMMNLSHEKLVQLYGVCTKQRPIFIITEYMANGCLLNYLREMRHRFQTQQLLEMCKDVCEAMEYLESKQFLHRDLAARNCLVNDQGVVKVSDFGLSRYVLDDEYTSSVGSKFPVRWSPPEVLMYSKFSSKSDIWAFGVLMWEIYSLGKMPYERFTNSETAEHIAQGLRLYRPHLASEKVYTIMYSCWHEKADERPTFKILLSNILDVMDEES

The inhibition is the drop in the measured response relative to a control, in per cent. For `CS(=O)(=O)c1ccc(-n2nc(-c3cnc4[nH]ccc4c3)c3c(N)ncnc32)cc1`, the inhibition in [1] was 14%; in [2] it was -2%; in [3], 0%; in [4], 1%; in test [5], -8%; in test [6], 96%. Moreover, the inhibition in test [7] is 25%; in test [8], -5%; in [9] it was 3%; in test [10], -9%; in [11] it was 3%; in test [12], -2%. Also, the inhibition is 7% in test [13]; 22% in test [14]; -9% in test [15]; -1% in test [16]; 28% in test [17]; 2% in test [18]. The inhibition in test [19] was -2%; in test [20], 24%; in [21], 2%; in [22] it was -2%; in [23], 0%.

Source of the values: ChEMBL document CHEMBL4190187, “Discovery of pyrazolopyrimidine derivatives as novel inhibitors of ataxia telangiectasia and rad3 related protein (ATR)” (Bioorg Med Chem Lett, 2017).
